ChEMBL document CHEMBL1144945, “Development of progesterone receptor antagonists from 1,2-dihydrochromeno[3,4-f]quinoline agonist pharmacophore” (Bioorg Med Chem Lett, 2003)
Activity calls are given as the source filed them.

Experiments:
[1] = target: T1, Estrogen receptor (Homo sapiens) (UniProt Q92731+P03372); assay: Antagonist efficacy for Estrogen receptor; Not active; format: functional
Progesterone receptor [2] = target: T2, Progesterone receptor (Homo sapiens, UniProt P06401)
T2 sequence (P06401 whole entry): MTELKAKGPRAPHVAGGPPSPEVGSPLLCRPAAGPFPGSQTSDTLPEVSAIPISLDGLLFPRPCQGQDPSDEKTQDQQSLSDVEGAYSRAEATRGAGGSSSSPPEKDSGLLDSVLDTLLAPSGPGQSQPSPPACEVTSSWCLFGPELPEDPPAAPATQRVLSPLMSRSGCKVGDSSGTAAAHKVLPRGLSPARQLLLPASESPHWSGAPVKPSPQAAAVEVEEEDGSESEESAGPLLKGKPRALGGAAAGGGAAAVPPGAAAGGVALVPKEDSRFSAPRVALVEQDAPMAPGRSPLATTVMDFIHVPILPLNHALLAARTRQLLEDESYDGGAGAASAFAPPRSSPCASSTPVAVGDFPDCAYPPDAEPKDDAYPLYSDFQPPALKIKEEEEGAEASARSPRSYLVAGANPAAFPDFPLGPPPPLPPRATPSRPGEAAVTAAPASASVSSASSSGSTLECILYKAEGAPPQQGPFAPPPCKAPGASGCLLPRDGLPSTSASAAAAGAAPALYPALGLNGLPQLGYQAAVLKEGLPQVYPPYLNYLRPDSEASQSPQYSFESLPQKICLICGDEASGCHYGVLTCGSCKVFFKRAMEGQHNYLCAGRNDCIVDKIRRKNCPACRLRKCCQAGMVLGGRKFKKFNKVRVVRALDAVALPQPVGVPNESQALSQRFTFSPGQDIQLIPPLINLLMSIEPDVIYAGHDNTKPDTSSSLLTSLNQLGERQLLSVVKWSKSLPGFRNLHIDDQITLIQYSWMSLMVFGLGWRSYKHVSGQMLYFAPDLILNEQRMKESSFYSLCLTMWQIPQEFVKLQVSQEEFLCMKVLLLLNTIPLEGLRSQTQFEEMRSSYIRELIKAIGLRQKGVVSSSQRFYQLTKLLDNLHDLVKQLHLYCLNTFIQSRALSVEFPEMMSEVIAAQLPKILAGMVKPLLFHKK

[3] = target: T3, Mineralocorticoid receptor (Homo sapiens) (UniProt P08235); assay: Antagonist efficacy for mineralocorticoid receptor (hMR); format: functional
T3 sequence (whole entry): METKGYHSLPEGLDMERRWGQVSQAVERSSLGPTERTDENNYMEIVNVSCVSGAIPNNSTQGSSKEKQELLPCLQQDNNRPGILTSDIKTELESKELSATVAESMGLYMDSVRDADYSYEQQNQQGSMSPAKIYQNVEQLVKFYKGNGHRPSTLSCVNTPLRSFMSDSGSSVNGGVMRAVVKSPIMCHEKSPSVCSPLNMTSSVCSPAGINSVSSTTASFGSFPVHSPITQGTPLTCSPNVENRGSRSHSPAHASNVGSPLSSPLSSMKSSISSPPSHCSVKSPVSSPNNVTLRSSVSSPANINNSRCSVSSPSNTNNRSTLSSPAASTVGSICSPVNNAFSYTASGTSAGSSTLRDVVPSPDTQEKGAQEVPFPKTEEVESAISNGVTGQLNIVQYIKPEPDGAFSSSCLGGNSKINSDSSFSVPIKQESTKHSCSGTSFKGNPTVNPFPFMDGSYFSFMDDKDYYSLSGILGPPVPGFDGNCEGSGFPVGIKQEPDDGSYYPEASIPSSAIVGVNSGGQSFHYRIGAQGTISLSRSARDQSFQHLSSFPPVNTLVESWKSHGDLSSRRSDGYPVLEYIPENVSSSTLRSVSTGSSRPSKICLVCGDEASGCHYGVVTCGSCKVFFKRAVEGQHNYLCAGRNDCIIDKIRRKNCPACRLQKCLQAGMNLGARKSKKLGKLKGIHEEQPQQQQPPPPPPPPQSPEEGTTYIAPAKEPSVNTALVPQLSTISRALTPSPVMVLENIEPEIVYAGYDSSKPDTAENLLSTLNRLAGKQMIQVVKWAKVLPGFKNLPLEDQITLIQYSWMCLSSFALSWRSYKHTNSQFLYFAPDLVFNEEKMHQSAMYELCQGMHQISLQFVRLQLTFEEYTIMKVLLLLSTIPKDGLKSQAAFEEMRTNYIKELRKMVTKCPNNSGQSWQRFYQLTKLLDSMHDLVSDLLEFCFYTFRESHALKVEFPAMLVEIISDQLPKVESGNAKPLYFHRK

[4] = target: T4, Mineralocorticoid receptor (Homo sapiens, UniProt P08235); assay: Inhibition of antagonist activity towards mineralocorticoid receptor (hMR); format: functional
T4 sequence (P08235 whole entry): T3 sequence (whole entry)

Androgen receptor = target: T5, Androgen receptor (Homo sapiens, UniProt P10275)
T5 sequence (P10275 whole entry): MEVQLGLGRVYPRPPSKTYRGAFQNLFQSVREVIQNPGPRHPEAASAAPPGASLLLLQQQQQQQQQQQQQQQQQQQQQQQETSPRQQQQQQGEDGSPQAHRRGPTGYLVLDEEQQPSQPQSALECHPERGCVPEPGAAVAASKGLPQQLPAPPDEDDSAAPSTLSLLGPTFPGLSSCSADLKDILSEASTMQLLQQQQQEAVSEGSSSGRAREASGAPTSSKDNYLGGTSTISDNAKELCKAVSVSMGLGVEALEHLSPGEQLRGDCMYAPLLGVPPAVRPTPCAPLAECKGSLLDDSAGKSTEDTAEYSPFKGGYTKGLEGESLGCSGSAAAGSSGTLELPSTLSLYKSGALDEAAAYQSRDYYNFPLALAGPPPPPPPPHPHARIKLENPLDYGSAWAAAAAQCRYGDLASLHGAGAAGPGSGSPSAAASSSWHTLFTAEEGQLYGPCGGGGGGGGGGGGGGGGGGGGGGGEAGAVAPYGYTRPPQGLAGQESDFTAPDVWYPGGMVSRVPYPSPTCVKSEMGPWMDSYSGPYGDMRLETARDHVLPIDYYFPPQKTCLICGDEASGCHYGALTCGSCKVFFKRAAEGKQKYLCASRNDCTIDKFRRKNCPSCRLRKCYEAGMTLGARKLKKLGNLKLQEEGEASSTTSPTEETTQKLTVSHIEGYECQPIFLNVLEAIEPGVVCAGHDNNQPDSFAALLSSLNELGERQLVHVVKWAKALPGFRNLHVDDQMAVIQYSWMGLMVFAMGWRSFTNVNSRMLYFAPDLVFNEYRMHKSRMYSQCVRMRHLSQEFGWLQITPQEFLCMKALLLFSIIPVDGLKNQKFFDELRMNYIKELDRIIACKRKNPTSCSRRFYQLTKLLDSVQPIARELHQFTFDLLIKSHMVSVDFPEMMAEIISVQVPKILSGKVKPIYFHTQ
Description: Inhibition of antagonist activity towards Androgen receptor

Progesterone receptor [5] = target: T2, Progesterone receptor; remark: listed apart in the source
Description: Inhibition of human progesterone receptor activation in T47D human breast cancer cell.

Progesterone receptor [6] = target: T2, Progesterone receptor; remark: listed apart in the source
Description: Binding affinity at human progesterone receptor.

Progesterone receptor [7] = target: T2, Progesterone receptor; remark: listed apart in the source
Description: Antagonistic activity at human progesterone receptor in CV-1 cells.

Glucocorticoid receptor [8] = target: T6, Glucocorticoid receptor (Homo sapiens, UniProt P04150); assay: Inhibition of antagonist activity towards glucocorticoid receptor; format: functional
T6 sequence (P04150 whole entry): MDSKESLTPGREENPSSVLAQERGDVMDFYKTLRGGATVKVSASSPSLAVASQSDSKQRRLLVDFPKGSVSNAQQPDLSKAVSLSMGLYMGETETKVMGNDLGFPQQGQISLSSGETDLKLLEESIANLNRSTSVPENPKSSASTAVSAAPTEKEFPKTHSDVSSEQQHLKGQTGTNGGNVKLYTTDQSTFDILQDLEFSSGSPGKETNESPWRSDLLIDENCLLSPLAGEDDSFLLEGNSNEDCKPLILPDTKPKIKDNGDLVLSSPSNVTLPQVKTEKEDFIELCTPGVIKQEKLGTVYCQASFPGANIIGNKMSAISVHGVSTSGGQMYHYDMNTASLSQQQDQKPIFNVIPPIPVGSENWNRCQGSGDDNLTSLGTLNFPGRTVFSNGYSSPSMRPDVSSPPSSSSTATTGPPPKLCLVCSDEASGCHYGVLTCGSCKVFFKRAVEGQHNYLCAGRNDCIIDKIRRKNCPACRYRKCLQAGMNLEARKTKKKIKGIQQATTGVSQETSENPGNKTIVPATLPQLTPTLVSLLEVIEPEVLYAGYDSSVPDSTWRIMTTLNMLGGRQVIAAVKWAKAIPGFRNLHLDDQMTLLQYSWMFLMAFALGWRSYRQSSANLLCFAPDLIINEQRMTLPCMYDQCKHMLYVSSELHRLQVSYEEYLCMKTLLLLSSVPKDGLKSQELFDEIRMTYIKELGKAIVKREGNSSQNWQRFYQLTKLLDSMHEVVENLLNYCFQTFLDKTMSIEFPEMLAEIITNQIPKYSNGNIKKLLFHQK

[9] = target: T1, Estrogen receptor (Homo sapiens); assay: Antagonist efficacy for Estrogen receptor; format: functional
Progesterone receptor [10] = target: T2, Progesterone receptor; assay: Binding towards human progesterone receptor
Progesterone receptor [11] = target: T2, Progesterone receptor; assay: Effective concentration for antagonistic activity towards human progesterone in CV-1 cells; format: functional, cell-based
[12] = target: T7, Progesterone receptor (Homo sapiens) (UniProt P06401); assay: Antagonist efficacy for human progesterone in CV-1 cells; format: functional, cell-based
T7 sequence (whole entry): T2 sequence (P06401 whole entry)

[13] = target: T8, Glucocorticoid receptor (Homo sapiens) (UniProt P04150); assay: Antagonist efficacy for glucocorticoid receptor; not active; format: functional
T8 sequence (whole entry): T6 sequence (P04150 whole entry)

[14] = target: T3, Mineralocorticoid receptor (Homo sapiens); assay: Antagonist efficacy for mineralocorticoid receptor (hMR); Not active; format: functional
Glucocorticoid receptor [15] = target: T6, Glucocorticoid receptor; assay: Inhibition of antagonist activity towards glucocorticoid receptor; not active; format: functional
[16] = target: T4, Mineralocorticoid receptor; assay: Inhibition of antagonist activity towards mineralocorticoid receptor (hMR); Not active; format: functional
[17] = target: T7, Progesterone receptor (Homo sapiens); assay: Effective concentration against human progesterone receptor in T47D human breast cancer cell; not active (<20% efficacy and/or >10 mM potency); format: cell-based; settings: Cancer cell lines
[18] = target: T7, Progesterone receptor (Homo sapiens); assay: Agonist efficacy for human progesterone receptor in T47D human breast cancer cell; not active (<20% efficacy and/or >10 mM potency); format: functional, cell-based
Progesterone receptor [19] = target: T2, Progesterone receptor; assay: Effective concentration for human progesterone receptor in T47D human breast cancer cell; not active (<20% efficacy and/or >10 mM potency); settings: cancer cell lines
Progesterone receptor [20] = target: T2, Progesterone receptor; assay: Inhibition of human progesterone in T47D human breast cancer cell; format: cell-based
[21] = target: T7, Progesterone receptor (Homo sapiens); assay: Antagonist efficacy for human progesterone in T47D human breast cancer cell; format: functional, cell-based
[22] = target: T7, Progesterone receptor (Homo sapiens); assay: Agonist efficacy for human progesterone in T47D human breast cancer cell; format: functional, cell-based
Progesterone receptor [23] = target: T2, Progesterone receptor; assay: Effective concentration for human progesterone in T47D human breast cancer cell; format: cell-based, Cancer cell lines

Structure (SMILES)	Efficacy [1]	EC50 (Progesterone receptor [2])	IC50 (Androgen receptor)	IC50 (Progesterone receptor [5])	Ki (Progesterone receptor [6])	EC50 (Progesterone receptor [7])	also measured
CC1=CC(C)(C)Nc2ccc3c(c21)COc1ccc([N+](=O)[O-])cc1-3	inactive	257 nM	60 nM	152 nM	6.8 nM	28.6 nM	Efficacy [3]: 79%; IC50 [4]: 1890 nM; IC50 (Glucocorticoid receptor [8]): 689 nM
CC#C[C@]1(O)CC[C@H]2[C@@H]3CCC4=CC(=O)CCC4=C3[C@@H](c3ccc(N(C)C)cc3)C[C@@]21C							Efficacy [9]: 59%
CC1=CC(C)(C)Nc2ccc3c(c21)COc1c(Br)cc(Br)cc1-3							Ki (Progesterone receptor [10]): > 1000 nM; EC50 (Progesterone receptor [11]): 1870 nM; Efficacy [12]: 86%
CC1=CC(C)(C)Nc2ccc3c(c21)COc1ccc(Cl)cc1-3	inactive		788 nM				Efficacy [13]: inactive; Efficacy [14]: inactive; IC50 (Glucocorticoid receptor [15]): Not Active; IC50 [16]: Not Active
CC1=CC(C)(C)Nc2ccc3c(c21)COc1ccc(Br)cc1-3	inactive	552 nM	395 nM	485 nM	15 nM	45 nM	Efficacy [14]: inactive; IC50 [16]: Not Active; IC50 (Glucocorticoid receptor [8]): 1930 nM
CC1=CC(C)(C)Nc2ccc3c(c21)COc1c(F)cc(C#N)cc1-3	inactive	86 nM	60 nM	149 nM	4.5 nM	16.7 nM	Efficacy [14]: inactive; IC50 [16]: Not Active; IC50 (Glucocorticoid receptor [8]): 194 nM
Cc1cc(F)cc2c1OCc1c-2ccc2c1C(C)CC(C)(C)N2 (configuration not stated)				499 nM	391 nM	637 nM	Activity [17]: inactive; Activity [18]: inactive
CC1=CC(C)(C)Nc2ccc3c(c21)COc1c(C)cc(Cl)cc1-3				374 nM	205 nM	178 nM	
CC1=CC(C)(C)Nc2ccc3c(c21)COc1ccc(-c2ccccc2)cc1-3				811 nM	> 1000 nM	2030 nM	EC50 (Progesterone receptor [19]): Not Active; Efficacy [18]: inactive
CC1CC(C)(C)Nc2ccc3c(c21)COc1c-3cc(F)cc1[N+](=O)[O-] (configuration not stated)				483 nM	370 nM	781 nM	Activity [17]: inactive; Activity [18]: inactive
COc1cc(Br)cc2c1OCc1c-2ccc2c1C(C)=CC(C)(C)N2					476 nM	43 nM	
COc1ccc2c(c1)-c1ccc3c(c1CO2)C(C)=CC(C)(C)N3		> 1000 nM		187 nM	86 nM	170 nM	
CC1=CC(C)(C)Nc2ccc3c(c21)COc1c(F)cccc1-3		> 1000 nM		368 nM	248 nM	118 nM	
COc1ccc2c(c1)OCc1c-2ccc2c1C(C)=CC(C)(C)N2							IC50 (Progesterone receptor [20]): 514 nM; Efficacy [21]: 83%; Efficacy [22]: 24%; Ki (Progesterone receptor [10]): 357 nM; EC50 (Progesterone receptor [11]): 193 nM; EC50 (Progesterone receptor [23]): > 1000 nM; Efficacy [12]: 85%
CN(C)c1ccc([C@H]2C[C@]3(C)[C@@H](CC[C@]3(O)CCCO)[C@@H]3CCC4=CC(=O)CCC4=C32)cc1 [ONAPRISTONE]							Efficacy [3]: 49%; Activity [17]: inactive; IC50 [4]: 470 nM; Activity [18]: inactive
CC1=CC(C)(C)Nc2ccc3c(c21)COc1ccc(F)cc1-3	inactive		1250 nM				Efficacy [13]: inactive; Efficacy [3]: 30%; IC50 (Glucocorticoid receptor [15]): Not Active; IC50 [4]: 3160 nM
